#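 All cell lines were grown in 96-well plates and treated with compound for 48 hours. At the GI50, growth is halved. TGI is the concentration that stops growth completely.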
# Experiments:
# Experiment in all cases: NCI anticancer screen, dose series, 48 h
# CAKI-1 renal = tested on: CAKI-1 renal
# K-562 leukemia = tested on: K-562 leukemia
# UACC-257 melanoma = tested on: UACC-257 melanoma
# HCT-15 colon = tested on: HCT-15 colon
# SW-620 colon = tested on: SW-620 colon
# KM12 colon = tested on: KM12 colon
# NCI-H226 lung = tested on: NCI-H226 lung
# U251 CNS = tested on: U251 CNS
# HOP-92 NSCLC = tested on: HOP-92 NSCLC
# RXF 393 renal = tested on: RXF 393 renal
SMILES,GI50 (CAKI-1 renal) [µM],TGI (CAKI-1 renal) [µM],GI50 (K-562 leukemia) [µM],TGI (K-562 leukemia) [µM],GI50 (UACC-257 melanoma) [µM],TGI (UACC-257 melanoma) [µM],GI50 (HCT-15 colon) [µM],TGI (HCT-15 colon) [µM],GI50 (SW-620 colon) [µM],TGI (SW-620 colon) [µM],GI50 (KM12 colon) [µM],TGI (KM12 colon) [µM],GI50 (NCI-H226 lung) [µM],TGI (NCI-H226 lung) [µM],GI50 (U251 CNS) [µM],TGI (U251 CNS) [µM],GI50 (HOP-92 NSCLC) [µM],TGI (HOP-92 NSCLC) [µM],GI50 (RXF 393 renal) [µM],TGI (RXF 393 renal) [µM]
COc1cc(/C=C2\C(=O)Nc3ccc(F)cc32)cc(OC)c1OC,15.8,> 100,5.67,> 100,87.6,> 100,14.9,> 100,63.7,> 100,26.2,> 100,23.7,> 100,13.5,49.4,5.07,42.8,,
O=C(CCC(=O)Nc1cccc(Cl)c1)CC(=O)c1ccc(Cl)cc1,,> 100,,> 100,,> 100,,> 100,,> 100,,> 100,,> 100,,,,> 100,,
Cc1c(C2Nc3ccccc3C2C)[nH]c2ccccc12 (stereo not given),2.45,22.8,0.89,50.4,12.4,28.3,0.297,25.9,2.33,32.7,7.45,29.1,10.9,31.3,,,,,12.4,28.8
CCCCCc1c(C)[nH]c(/C=C2\N=C(c3ccc[nH]3)C=C2CC)c1C,0.0191,0.214,< 0.01,0.176,0.0286,0.167,< 0.01,0.125,< 0.01,0.17,< 0.01,0.191,< 0.0131,0.0452,< 0.01,0.135,< 0.013,0.0426,,
O=C(Nc1cccc(Cl)c1Cl)c1cccc(NC2=C(Cl)C(=O)N(Cc3ccccc3)C2=O)c1,33.2,> 100,5.32,37.5,23.3,72.3,52.1,> 100,20.1,> 100,82.8,> 100,31.7,> 100,46.2,> 100,,,,
COc1ccc(C(=O)C(CO)Oc2ccccc2OC)cc1OC (stereo not given),,> 100,,> 100,,> 100,,> 100,,> 100,,> 100,,,,> 100,,,,
CC(=O)Oc1ccccc1C(=O)N=C1[Se]CCCN1C(=O)c1ccccc1OC(C)=O,,,3.32,12.6,,,2.53,7.28,3.58,11.4,,,2.01,4.74,1.64,3,,,2.48,6.92
Nc1c(C(=O)N/N=C/c2ccc(-c3ccc(Cl)cc3)o2)cnn1-c1ccnc2c(C(F)(F)F)cccc12,> 100,> 100,97.7,> 100,,,> 100,> 100,> 100,> 100,> 100,> 100,> 100,> 100,> 100,> 100,50.7,> 100,,
COc1ccccc1NC(=O)C1=C(C)NC(C)=C(C(=O)Nc2ccccc2OC)C1c1ccc([N+](=O)[O-])cc1,,> 100,,> 100,,> 100,,> 100,,> 100,,> 100,,> 100,,> 100,,,,> 100
Cc1cn2c(/C=C3/C(=O)Nc4ccccc43)c(-c3ccc(Cl)cc3)nc2s1,12.1,25.5,46.5,> 50,10.5,27.8,6.93,13.4,15.1,38.2,10.5,23.2,7.04,21.3,5.31,11.2,,,3.72,12.9
CC(=O)Oc1ccc(Nc2c3ccccc3nc3ccccc23)cc1,1.21,12.7,1.45,> 100,1.51,4.31,1.13,3.4,0.747,2.58,1.88,10.5,0.675,3.08,1.55,8.85,,,1.08,2.93
COc1cc(NC(C)CCCN)c2nccc(C)c2c1OC (stereo not given),19,40.8,19.2,53.9,13.7,29.4,11.5,24.5,3.54,15,16.7,35.1,18.8,43,14.1,27.4,,,17.1,40.3
Nc1ccncc1/C=C1/C(=O)Nc2ccccc21,30.2,89.7,33.6,> 100,> 100,> 100,36.5,> 100,31.4,> 100,25,> 100,40.5,> 100,47.9,> 100,,,,

# — PubChem BioAssay (NCI)
